Experiments:
Format in all cases: binding
ACK = biological target: T1, ACK (Homo sapiens, UniProt Q07912); experiment: Probe-based (AX9989) kinase profiling in Jurkat lysate: ACK; settings: read-out: Kinase inhibition % at indicated screening concentration: ACK; for inhibition at 1 µM: screening concentration 1.0 μM; for inhibition at 0.1 µM: screening concentration 0.1 μM
T1 construct: screened for activity against several kinases in Jurkat cells; endogenous in cells; host or cells: Jurkat cell lysate
T1 sequence (Q07912 whole entry): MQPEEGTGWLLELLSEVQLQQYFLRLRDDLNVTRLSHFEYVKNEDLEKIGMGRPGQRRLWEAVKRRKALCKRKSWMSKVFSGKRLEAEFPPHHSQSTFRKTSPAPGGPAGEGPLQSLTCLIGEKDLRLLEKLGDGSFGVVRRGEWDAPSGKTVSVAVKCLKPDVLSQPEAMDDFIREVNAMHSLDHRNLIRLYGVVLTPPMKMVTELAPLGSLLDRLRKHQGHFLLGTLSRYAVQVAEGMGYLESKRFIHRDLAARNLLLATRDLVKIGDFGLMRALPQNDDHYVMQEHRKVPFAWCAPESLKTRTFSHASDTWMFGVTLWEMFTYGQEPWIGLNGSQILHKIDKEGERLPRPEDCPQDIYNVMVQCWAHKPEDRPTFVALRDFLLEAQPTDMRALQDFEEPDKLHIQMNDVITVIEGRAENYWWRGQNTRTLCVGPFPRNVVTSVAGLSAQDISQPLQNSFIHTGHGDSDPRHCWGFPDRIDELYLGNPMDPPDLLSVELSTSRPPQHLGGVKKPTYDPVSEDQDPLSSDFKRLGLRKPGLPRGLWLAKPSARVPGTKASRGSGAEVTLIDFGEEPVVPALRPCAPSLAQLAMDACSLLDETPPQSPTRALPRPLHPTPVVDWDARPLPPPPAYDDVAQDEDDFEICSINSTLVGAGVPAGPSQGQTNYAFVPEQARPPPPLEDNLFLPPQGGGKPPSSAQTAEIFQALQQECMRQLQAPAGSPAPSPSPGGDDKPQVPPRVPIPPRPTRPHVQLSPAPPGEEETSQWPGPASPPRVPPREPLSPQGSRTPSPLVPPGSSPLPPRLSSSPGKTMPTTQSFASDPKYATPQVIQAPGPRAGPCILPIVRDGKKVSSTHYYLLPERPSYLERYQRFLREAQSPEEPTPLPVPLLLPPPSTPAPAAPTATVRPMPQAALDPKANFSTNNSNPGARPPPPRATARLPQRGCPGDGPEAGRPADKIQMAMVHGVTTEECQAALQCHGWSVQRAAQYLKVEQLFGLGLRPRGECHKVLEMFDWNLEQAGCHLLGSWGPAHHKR
Outline: (§1)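 Jurkat lysate (50 mM HEPES pH 7.5, 150 mM NaCl, 0.1% Triton X-100, 20 mM MnCl2) pre-incubated 15 min with compound at room temperature, then labeled with 5 μM acyl phosphate ATP probe AX9989. Tryptic probe-labeled peptides streptavidin-captured and quantified by LC/MS; percent inhibition from decreased fragment intensity versus untreated.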

JAK1 = biological target: T2, JAK1 (Homo sapiens, UniProt P23458); experiment: Probe-based (AX9989) kinase profiling in Jurkat lysate: JAK1; settings: read-out: Kinase inhibition % at indicated screening concentration: JAK1; for inhibition at 1 µM: screening concentration 1.0 μM; for inhibition at 0.1 µM: screening concentration 0.1 μM
T2 construct: screened for activity against several kinases in Jurkat cells; endogenous in cells; host or cells: Jurkat cell lysate
T2 sequence (P23458 whole entry): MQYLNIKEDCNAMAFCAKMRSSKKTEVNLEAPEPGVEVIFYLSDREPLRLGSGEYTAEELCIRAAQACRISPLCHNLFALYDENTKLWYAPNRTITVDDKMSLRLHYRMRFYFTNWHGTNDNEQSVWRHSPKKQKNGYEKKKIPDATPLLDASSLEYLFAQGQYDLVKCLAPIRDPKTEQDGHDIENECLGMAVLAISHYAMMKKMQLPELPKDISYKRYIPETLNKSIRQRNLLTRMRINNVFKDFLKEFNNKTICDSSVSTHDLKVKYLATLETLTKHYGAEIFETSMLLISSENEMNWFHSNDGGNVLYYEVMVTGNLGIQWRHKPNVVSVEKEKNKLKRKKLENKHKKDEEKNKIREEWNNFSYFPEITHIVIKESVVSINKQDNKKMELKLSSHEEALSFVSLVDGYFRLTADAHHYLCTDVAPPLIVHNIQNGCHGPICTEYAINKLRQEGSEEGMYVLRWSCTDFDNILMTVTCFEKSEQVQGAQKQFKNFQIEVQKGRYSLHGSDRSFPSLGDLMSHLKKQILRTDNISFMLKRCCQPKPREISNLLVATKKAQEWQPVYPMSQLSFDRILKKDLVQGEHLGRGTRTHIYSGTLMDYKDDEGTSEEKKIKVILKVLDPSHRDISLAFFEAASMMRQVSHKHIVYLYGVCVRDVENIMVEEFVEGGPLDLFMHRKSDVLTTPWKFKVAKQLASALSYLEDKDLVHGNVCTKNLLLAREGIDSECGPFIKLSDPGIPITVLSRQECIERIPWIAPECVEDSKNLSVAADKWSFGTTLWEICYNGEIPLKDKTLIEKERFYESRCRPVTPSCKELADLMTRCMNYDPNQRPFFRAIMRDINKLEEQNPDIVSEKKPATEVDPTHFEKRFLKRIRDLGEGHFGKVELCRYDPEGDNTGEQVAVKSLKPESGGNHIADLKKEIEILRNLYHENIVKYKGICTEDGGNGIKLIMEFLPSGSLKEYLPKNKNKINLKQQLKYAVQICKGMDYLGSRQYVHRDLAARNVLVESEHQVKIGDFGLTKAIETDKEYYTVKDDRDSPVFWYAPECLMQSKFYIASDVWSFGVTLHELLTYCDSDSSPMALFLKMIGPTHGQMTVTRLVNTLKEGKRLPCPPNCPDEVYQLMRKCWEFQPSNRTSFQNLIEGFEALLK
Outline: as §1

ABL or ARG = experiment: Probe-based (AX9989) kinase profiling in Jurkat lysate: ABL or ARG
Outline: as §1

AurA = biological target: T3, AurA (Homo sapiens, UniProt O14965); experiment: Probe-based (AX9989) kinase profiling in Jurkat lysate: AurA; settings: read-out: Kinase inhibition % at indicated screening concentration: AurA; for inhibition at 1 µM: screening concentration 1.0 μM; for inhibition at 0.1 µM: screening concentration 0.1 μM
T3 construct: screened for activity against several kinases in Jurkat cells; endogenous in cells; host or cells: Jurkat cell lysate
T3 sequence (O14965 1-403): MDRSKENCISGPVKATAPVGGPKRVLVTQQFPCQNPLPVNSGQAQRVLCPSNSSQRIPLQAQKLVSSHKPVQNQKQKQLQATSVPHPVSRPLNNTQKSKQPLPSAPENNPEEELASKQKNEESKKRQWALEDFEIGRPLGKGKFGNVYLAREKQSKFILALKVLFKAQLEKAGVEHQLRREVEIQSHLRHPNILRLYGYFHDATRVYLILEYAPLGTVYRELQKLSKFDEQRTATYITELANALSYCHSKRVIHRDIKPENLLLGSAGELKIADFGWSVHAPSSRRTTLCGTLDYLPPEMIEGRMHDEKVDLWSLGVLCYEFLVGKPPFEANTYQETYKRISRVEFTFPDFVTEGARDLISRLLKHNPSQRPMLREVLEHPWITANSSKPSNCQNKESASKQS
Outline: as §1

ERK5 = biological target: T4, ERK5 (Homo sapiens, UniProt Q13164); experiment: Probe-based (AX9989 acyl phosphate ATP probe) kinase profiling in Jurkat lysate: ERK5; settings: for IC50: calculated from percent inhibition of AX9989 labeling and the screening concentration, Jurkat lysate; for inhibition at 1 µM: screening concentration 1.0 μM; for inhibition at 1 µM / inhibition at 0.1 µM: read-out: Kinase inhibition % at indicated screening concentration: ERK5; for inhibition at 0.1 µM: screening concentration 0.1 μM
T4 construct: screened for activity against several kinases in Jurkat cells; endogenous in cells; host or cells: Jurkat cell lysate
T4 sequence (Q13164 whole entry): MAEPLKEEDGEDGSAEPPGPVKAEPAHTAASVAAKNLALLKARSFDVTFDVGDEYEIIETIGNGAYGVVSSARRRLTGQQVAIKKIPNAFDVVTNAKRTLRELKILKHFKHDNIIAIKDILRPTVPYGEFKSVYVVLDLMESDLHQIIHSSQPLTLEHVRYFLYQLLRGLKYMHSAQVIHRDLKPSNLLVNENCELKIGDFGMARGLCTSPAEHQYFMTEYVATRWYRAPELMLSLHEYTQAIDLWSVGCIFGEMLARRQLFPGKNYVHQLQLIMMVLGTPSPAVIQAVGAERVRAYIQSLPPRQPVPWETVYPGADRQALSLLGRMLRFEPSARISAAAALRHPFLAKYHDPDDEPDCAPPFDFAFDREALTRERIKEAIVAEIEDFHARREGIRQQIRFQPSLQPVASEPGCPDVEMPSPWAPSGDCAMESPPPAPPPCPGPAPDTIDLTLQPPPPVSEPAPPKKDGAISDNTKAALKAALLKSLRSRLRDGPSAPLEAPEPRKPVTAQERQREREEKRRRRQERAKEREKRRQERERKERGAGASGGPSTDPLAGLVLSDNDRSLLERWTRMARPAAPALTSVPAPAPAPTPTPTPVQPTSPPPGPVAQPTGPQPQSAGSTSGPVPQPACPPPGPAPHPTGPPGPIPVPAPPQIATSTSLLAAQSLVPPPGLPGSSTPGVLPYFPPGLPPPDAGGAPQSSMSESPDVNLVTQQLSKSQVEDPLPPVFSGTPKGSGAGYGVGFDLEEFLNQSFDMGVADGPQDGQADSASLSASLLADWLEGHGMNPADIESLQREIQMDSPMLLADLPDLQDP
Outline: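 ERK5 IC50 values came from percent inhibition at the screening concentration, measured as loss of LC/MS signal of probe-labelled active-site peptides. Compound was added for 15 min at room temperature to Jurkat lysate (5 mg/ml, 20 mM MnCl2) before labelling with AX9989 ATP acyl phosphate probe at 5 μM.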

[1] = biological target: T5, BRD4 bromodomain domain I [BRD4(1)] (Homo sapiens, UniProt O60885); experiment: BRD4 bromodomain domain 1 inhibition assay (TR-FRET); settings: screening concentration 10 μM
T5 construct: BRD4 bromodomain domain I [BRD4(1)]; purchased Cayman Chemicals
Outline: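 0.5% DMSO, in triplicate, using Cayman BRD4(1) TR-FRET protocol with slight modification. 670/620 nm ratio normalized to 10 μM JQ1, with DMSO control set as 0% inhibition.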

AurB or AurC = experiment: Probe-based (AX9989) kinase profiling in Jurkat lysate: AurB or AurC
Outline: as §1

SMILES | inhibition at 1 µM (ACK) [%] | inhibition at 1 µM (JAK1) [%] | Kinase inhibition % at indicated screening concentration: ABL or ARG (ABL or ARG; screening concentration 1.0 μM) | inhibition at 1 µM (AurA) [%] | IC50 (ERK5) [nM] | inhibition at 1 µM (ERK5) [%] | inhibition at 10 µM [1] [%] | Kinase inhibition % at indicated screening concentration: AurB or AurC (AurB or AurC; screening concentration 1.0 μM) | inhibition at 0.1 µM (ACK) [%] | inhibition at 0.1 µM (JAK1) [%] | Kinase inhibition % at indicated screening concentration: ABL or ARG (ABL or ARG; screening concentration 0.1 μM) | inhibition at 0.1 µM (AurA) [%] | inhibition at 0.1 µM (ERK5) [%] | Kinase inhibition % at indicated screening concentration: AurB or AurC (AurB or AurC; screening concentration 0.1 μM)
CCOc1cc(C(=O)N2CCCCC2)ccc1Nc1cc2c(cn1)N(C)C(=O)c1ccccc1N2C [Compound 12] | ≤ 35 | ≤ 35 | E (E is ≦35%) | ≤ 35 | 101 to 500 | 75 to 90 | 70 to 85 | E (E is ≦35%) | – | – | – | – | – | –
CCOc1cc(C(=O)N2CCC(N3CCCC3)C2)ccc1Nc1cc2c(cn1)N(C)C(=O)c1occc1N2C (centres unmarked) [Compound 15] | – | – | – | – | ≤ 50 | – | > 85 | – | ≤ 35 | ≤ 35 | E (E is ≦35%) | ≤ 35 | 75 to 90 | E (E is ≦35%)
CCOc1cc(C(=O)N2CC[C@H](O)C2)ccc1Nc1cc2c(cn1)N(C)C(=O)c1occc1N2C [Compound 17] | – | – | – | – | ≤ 50 | – | > 85 | – | ≤ 35 | ≤ 35 | E (E is ≦35%) | ≤ 35 | 75 to 90 | E (E is ≦35%)
C=CCN1CCN(C(=O)c2ccc(Nc3cc4c(cn3)N(C)C(=O)c3ccccc3N4C)c(OCC)c2)CC1 [Compound 21] | – | – | – | – | ≤ 50 | – | 70 to 85 | – | ≤ 35 | ≤ 35 | E (E is ≦35%) | ≤ 35 | 75 to 90 | E (E is ≦35%)
CCOc1cc(C(=O)N2CC[C@@H](N3CCCC3)C2)ccc1Nc1cc2c(cn1)N(C)C(=O)c1ccccc1N2C [Compound 24] | – | – | – | – | ≤ 50 | – | > 85 | – | ≤ 35 | ≤ 35 | E (E is ≦35%) | ≤ 35 | > 90 | E (E is ≦35%)
CCOc1cc(C(=O)N2CC[C@@H](N(C)C)C2)ccc1Nc1cc2c(cn1)N(C)C(=O)c1occc1N2C [Compound 25] | – | – | – | – | ≤ 50 | – | > 85 | – | ≤ 35 | ≤ 35 | E (E is ≦35%) | ≤ 35 | > 90 | E (E is ≦35%)
CCOc1cc(C(=O)N(C)CCN2CCCC2)ccc1Nc1cc2c(cn1)N(C)C(=O)c1ccccc1N2C [Compound 28] | – | – | – | – | 50 to 100 | – | > 85 | – | ≤ 35 | ≤ 35 | E (E is ≦35%) | ≤ 35 | > 90 | E (E is ≦35%)
CCOc1cc(C(=O)N(C)CCn2ccnc2)ccc1Nc1cc2c(cn1)N(C)C(=O)c1ccccc1N2C [Compound 30] | – | – | – | – | ≤ 50 | – | 70 to 85 | – | ≤ 35 | ≤ 35 | E (E is ≦35%) | ≤ 35 | 75 to 90 | E (E is ≦35%)
CCOc1cc(C(=O)N2CCNC[C@@H]2C)ccc1Nc1cc2c(cn1)N(C)C(=O)c1ccccc1N2C [Compound 31] | – | – | – | – | ≤ 50 | – | > 85 | – | ≤ 35 | ≤ 35 | E (E is ≦35%) | ≤ 35 | 75 to 90 | E (E is ≦35%)
CCOc1cc(C(=O)N2CCN(CCO)CC2)ccc1Nc1cc2c(cn1)N(C)C(=O)c1ccccc1N2C [Compound 37] | – | – | – | – | ≤ 50 | – | 70 to 85 | – | ≤ 35 | ≤ 35 | E (E is ≦35%) | ≤ 35 | 75 to 90 | E (E is ≦35%)
CCOc1cc(C(=O)N2CCN(C3CC3)CC2)ccc1Nc1cc2c(cn1)N(C)C(=O)c1ccccc1N2C [Compound 39] | – | – | – | – | ≤ 50 | – | < 70 | – | ≤ 35 | ≤ 35 | E (E is ≦35%) | ≤ 35 | 50 to 75 | E (E is ≦35%)
CCOc1cc(C(=O)N2CCC(N3CCN(C)CC3)CC2)ccc1Nc1cc2c(cn1)N(C)C(=O)c1ncccc1N2C [Compound 40] | ≤ 35 | ≤ 35 | E (E is ≦35%) | ≤ 35 | ≤ 50 | > 90 | < 70 | E (E is ≦35%) | – | – | – | – | – | –
CCOc1cc(C(=O)N(C)CCN(CC)CC)ccc1Nc1cc2c(cn1)N(C)C(=O)c1ccccc1N2C [Compound 42] | ≤ 35 | ≤ 35 | E (E is ≦35%) | ≤ 35 | ≤ 50 | > 90 | > 85 | E (E is ≦35%) | – | – | – | – | – | –
CCOc1cc(C(=O)N2CCC(NC)C2)ccc1Nc1cc2c(cn1)N(C)C(=O)c1occc1N2C (centres unmarked) [Compound 43] | – | – | – | – | ≤ 50 | – | > 85 | – | ≤ 35 | ≤ 35 | E (E is ≦35%) | ≤ 35 | > 90 | E (E is ≦35%)
CCOc1cc(C(=O)NCCN2CCN(C)CC2)ccc1Nc1cc2c(cn1)N(C)C(=O)c1ccccc1N2C [Compound 44] | ≤ 35 | ≤ 35 | E (E is ≦35%) | ≤ 35 | 101 to 500 | 75 to 90 | 70 to 85 | E (E is ≦35%) | – | – | – | – | – | –
CN1C(=O)c2ccccc2N(C)c2cc(N[C@H]3CC[C@H](NC4=NCCO4)CC3)ncc21 [Compound 45] | ≤ 35 | ≤ 35 | E (E is ≦35%) | ≤ 35 | 101 to 500 | 75 to 90 | < 70 | E (E is ≦35%) | – | – | – | – | – | –

From patent US20170008888A1 (KYORIN PHARMACEUTICAL CO., LTD., priority 2014, published 2017)
